Patent US20080171783A1, “COMPOSITIONS AND METHODS FOR TREATING HYPERPROLIFERATIVE DISEASE” (Migenix Inc., priority 2006, published 2008)

Biological target: T1, Calf polymerase alpha (Bos taurus, UniProt A0AAA9TD94)
T1 construct: purchased Replizyme Ltd (Heslington, York, UK)
T1 sequence (A0AAA9TD94 1-1441): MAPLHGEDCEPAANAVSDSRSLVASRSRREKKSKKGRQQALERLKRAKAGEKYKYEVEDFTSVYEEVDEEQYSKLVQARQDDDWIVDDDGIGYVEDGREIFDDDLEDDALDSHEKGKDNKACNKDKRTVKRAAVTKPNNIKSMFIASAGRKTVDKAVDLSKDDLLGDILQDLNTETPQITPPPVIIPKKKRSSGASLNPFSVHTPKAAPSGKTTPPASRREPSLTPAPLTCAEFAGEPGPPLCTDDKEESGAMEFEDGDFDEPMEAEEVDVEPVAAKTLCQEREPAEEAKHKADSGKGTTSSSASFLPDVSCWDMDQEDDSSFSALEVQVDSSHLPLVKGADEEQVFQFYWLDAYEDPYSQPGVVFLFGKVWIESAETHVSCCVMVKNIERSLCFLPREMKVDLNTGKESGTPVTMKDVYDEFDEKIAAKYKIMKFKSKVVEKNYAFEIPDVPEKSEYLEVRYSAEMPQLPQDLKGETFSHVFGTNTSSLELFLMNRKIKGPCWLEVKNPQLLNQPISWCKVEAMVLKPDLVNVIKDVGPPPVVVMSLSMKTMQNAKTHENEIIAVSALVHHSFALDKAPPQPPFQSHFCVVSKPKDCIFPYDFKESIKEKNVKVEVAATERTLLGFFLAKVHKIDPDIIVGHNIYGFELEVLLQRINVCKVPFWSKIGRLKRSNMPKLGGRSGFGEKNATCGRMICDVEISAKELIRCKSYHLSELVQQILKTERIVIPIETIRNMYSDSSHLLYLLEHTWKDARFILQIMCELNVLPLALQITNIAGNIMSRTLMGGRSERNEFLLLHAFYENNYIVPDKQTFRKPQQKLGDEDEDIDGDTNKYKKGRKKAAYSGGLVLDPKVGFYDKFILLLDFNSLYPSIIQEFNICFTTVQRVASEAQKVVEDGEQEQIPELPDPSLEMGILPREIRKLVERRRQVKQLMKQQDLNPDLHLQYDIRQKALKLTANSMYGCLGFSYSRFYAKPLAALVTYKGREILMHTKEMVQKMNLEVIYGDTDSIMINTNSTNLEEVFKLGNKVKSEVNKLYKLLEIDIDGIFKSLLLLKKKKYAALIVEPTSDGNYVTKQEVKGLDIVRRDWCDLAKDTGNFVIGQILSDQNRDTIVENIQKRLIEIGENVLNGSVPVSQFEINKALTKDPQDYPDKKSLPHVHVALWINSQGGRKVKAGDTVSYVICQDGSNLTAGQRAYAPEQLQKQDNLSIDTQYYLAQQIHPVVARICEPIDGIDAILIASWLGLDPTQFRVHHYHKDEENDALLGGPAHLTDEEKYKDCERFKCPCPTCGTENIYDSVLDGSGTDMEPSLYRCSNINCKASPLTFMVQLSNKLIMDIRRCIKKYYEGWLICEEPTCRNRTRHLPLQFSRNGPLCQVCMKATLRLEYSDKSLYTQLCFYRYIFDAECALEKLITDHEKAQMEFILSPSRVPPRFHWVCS
Experiment: Calf polymerase alpha inhibition (Replizyme kit)
Type: biochemical
Details: at 10 μM, single point screening
Protocol: Calf polymerase alpha and human polymerase alpha investigations were performed with a kit available from Replizyme Ltd (Heslington, York, UK).

| SMILES | inhibition at 10 µM | % Inhibition |
| --- | --- | --- |
| Cc1ccc(NC(=O)[C@H](CCCCN)NC(=O)OCC2c3ccccc3-c3ccccc32)cc1 [Compound 20, (S)-(5-AMINO-1-P-TOLYLCARBAMOYL-PENTYL)-CARBAMIC ACID 9H-FLUOREN-9-YLMETHYL ESTER] | 18% |  |
| NCCCC[C@H](NC(=O)OCC1c2ccccc2-c2ccccc21)C(=O)NCc1ccccc1 [Compound 21, (S)-(5-AMINO-1-BENZYLCARBAMOYL-PENTYL)-CARBAMIC ACID 9H-FLUOREN-9-YLMETHYL ESTER] | 12% |  |
| NCCCC[C@H](NC(=O)OCC1c2ccccc2-c2ccccc21)C(=O)NC1CCCCC1 [Compound 22, (S)-(5-AMINO-1-CYCLOHEXYLCARBAMOYL-PENTYL)-CARBAMIC ACID 9H-FLUOREN-9-YLMETHYL ESTER] | 14% |  |
| NCCCC[C@H](NC(=O)OCC1c2ccccc2-c2ccccc21)C(=O)N(Cc1ccccc1)C1CCCCC1 [Compound 33, (S)-[5-AMINO-1-(BENZYL-CYCLOHEXYL-CARBAMOYL)-PENTYL]-CARBAMIC ACID 9H-FLUOREN-9-YLMETHYL ESTER] | 95% |  |
| Cc1ccc(NC(=O)[C@H](CCCCN)NC(=O)Nc2ccc(-c3ccccc3)cc2)cc1 [Compound 40, (S)-6-AMINO-2-(3-BIPHENYL-4-YL-UREIDO)-HEXANOIC ACID P-TOLYLAMIDE] |  | 95% |
| Cc1ccc(NC(=O)[C@H](CCCCN)NC(=O)C2c3ccccc3-c3ccccc32)cc1 [Compound 52, (S)-9H-FLUORENE-9-CARBOXYLIC ACID (5-AMINO-1-P-TOLYLCARBAMOYL-PENTYL)-AMIDE] |  | 13% |
| Cc1ccc(NC(=O)[C@H](CCCCN)NC(=O)CC2c3ccccc3-c3ccccc32)cc1 [Compound 53, (S)-6-AMINO-2-(2-9H-FLUOREN-9-YL-ACETYLAMINO)-HEXANOIC ACID P-TOLYLAMIDE] |  | 22% |
| Cc1ccc(NC(=O)[C@H](CCCCN)NC(=O)Nc2ccc(Cc3ccccc3)cc2)cc1 [Compound 74, (S)-6-AMINO-2-[3-(4-BENZYL-PHENYL)-UREIDO]-HEXANOIC ACID P-TOLYLAMIDE] |  | 92% |
| Cc1ccc(N(C)C(=O)[C@H](CCCCN)NC(=O)OCC2c3ccccc3-c3ccccc32)cc1 [Compound 92, (S)-[5-AMINO-1-(METHYL-P-TOLYL-CARBAMOYL)-PENTYL]-CARBAMIC ACID 9H-FLUOREN-9-YLMETHYL ESTER] |  | 56.5% |
| Cc1cc2cc(NC(=O)[C@H](CCCCN)NC(=O)Nc3ccc(-c4ccccc4)cc3)ccc2[nH]1 [Compound 94, (S)-6-AMINO-2-(3-BIPHENYL-4-YL-UREIDO)-HEXANOIC ACID (2-METHYL-1H-INDOL-5-YL)-AMIDE] | 93% |  |
| Cc1ccc(NC(=O)[C@H](CN)NC(=O)OCC2c3ccccc3-c3ccccc32)cc1 [Compound 103, (S)-(2-AMINO-1-P-TOLYLCARBAMOYL-ETHYL)-CARBAMIC ACID 9H-FLUOREN-9-YLMETHYL ESTER] |  | 72% |
| Cc1ccc(NC(=O)[C@H](CCN)NC(=O)OCC2c3ccccc3-c3ccccc32)cc1 [Compound 108, (S)-(3-AMINO-1-P-TOLYLCARBAMOYL-PROPYL)-CARBAMIC ACID 9H-FLUOREN-9-YLMETHYL ESTER] |  | 84% |
| Cc1ccc(NC(=O)[C@H](CCCC[N+](C)(C)C)NC(=O)OCC2c3ccccc3-c3ccccc32)cc1 [Compound 110] |  | 62.5% |
| Cc1ccc(NC(=O)[C@@H](N)CCCCN)cc1 [Compound 114, (S)-2,6-DIAMINO-HEXANOIC ACID P-TOLYLAMIDE] |  | 17% |
| NCCCCC[C@H](NC(=O)Nc1ccc(OCc2ccccc2)cc1)C(=O)Nc1ccc(C2CCCCC2)cc1 [Compound 121, (S)-7-AMINO-2-[3-(4-BENZYLOXY-PHENYL)-UREIDO]-HEPTANOIC ACID (4-CYCLOHEXYL-PHENYL)-AMIDE] | 102% |  |
| Cc1ccc(NC(=O)[C@H](CCCCN(C)C)NC(=O)OCC2c3ccccc3-c3ccccc32)cc1 [Compound 124, (S)-(5-DIMETHYLAMINO-1-P-TOLYLCARBAMOYL-PENTYL)-CARBAMIC ACID 9H-FLUOREN-9-YLMETHYL ESTER] |  | 79% |
| Cc1ccc(NC(=O)[C@H](CCCCN)NC(=O)NC2c3ccccc3-c3ccccc32)cc1 [Compound 126, (S)-6-AMINO-2-[3-(9H-FLUOREN-9-YL)-UREIDO]-HEXANOIC ACID P-TOLYLAMIDE] |  | 98% |
| Cc1ccc(NC(=O)[C@H](CCCCN)NC(=O)Nc2cccc(-c3ccccc3)c2)cc1 [Compound 127, (S)-6-AMINO-2-(3-BIPHENYL-3-YL-UREIDO)-HEXANOIC ACID P-TOLYLAMIDE] |  | 45% |
| NCCCC[C@@H](NC(=O)Nc1ccc(-c2ccccc2)cc1)C(=O)Nc1ccc(C2CCCCC2)cc1 [Compound 142, (R)-6-AMINO-2-(3-BIPHENYL-4-YL-UREIDO)-HEXANOIC ACID (4-CYCLOHEXYL-PHENYL)-AMIDE] | 103% |  |
| Cc1ccc(NC(=O)[C@H](Cc2ccc(CN)cc2)NC(=O)Nc2ccc(-c3ccccc3)cc2)cc1 [Compound 145, (S)-3-(4-AMINOMETHYL-PHENYL)-2-(3-BIPHENYL-4-YL-UREIDO)-N-P-TOLYL-PROPIONAMIDE] |  | 102% |
| Cc1ccc(NC(=O)[C@H](Cc2ccc(CN)cc2)NC(=O)Nc2ccc(OCc3ccccc3)cc2)cc1 [Compound 146, (S)-3-(4-AMINOMETHYL-PHENYL)-2-[3-(4-BENZYLOXY-PHENYL)-UREIDO]-N-P-TOLYL-PROPIONAMIDE] |  | 102% |
| O=C(CC1CNCCN1C(=O)Nc1ccc(OCc2ccccc2)cc1)Nc1ccc(C2CCCCC2)cc1 (stereo not drawn) [Compound 163, 2-[(4-CYCLOHEXYL-PHENYLCARBAMOYL)-METHYL]-PIPERAZINE-1-CARBOXYLIC ACID (4-BENZYLOXY-PHENYL)-AMIDE] | 102% |  |
| NCCCC[C@@H](NC(=O)Nc1ccc(OCc2ccccc2)cc1)C(=O)Nc1ccc(C2CCCCC2)cc1 [Compound 166, (R)-6-AMINO-2-[3-(4-BENZYLOXY-PHENYL)-UREIDO]-HEXANOIC ACID (4-CYCLOHEXYL-PHENYL)-AMIDE] | 102% |  |
| Cc1ccc(NC(=O)[C@H](CCCCNC(=O)CN)NC(=O)OCC2c3ccccc3-c3ccccc32)cc1 [Compound 176, (S)-[5-(2-AMINO-ACETYLAMINO)-1-P-TOLYLCARBAMOYL-PENTYL]-CARBAMIC ACID 9H-FLUOREN-9-YLMETHYL ESTER] |  | 68% |
| CC(=O)NCCCC[C@H](NC(=O)OCC1c2ccccc2-c2ccccc21)C(=O)Nc1ccc(C)cc1 [Compound 181, (S)-(5-ACETYLAMINO-1-P-TOLYLCARBAMOYL-PENTYL)-CARBAMIC ACID 9H-FLUOREN-9-YLMETHYL ESTER] |  | 18.5% |
| Cc1ccc(NC(=O)CC2CN(C(=O)[C@H](C)N)CCN2C(=O)OCC2c3ccccc3-c3ccccc32)cc1 (stereo partly drawn) [Compound 184, 4-((S)-2-AMINO-PROPIONYL)-2-(P-TOLYLCARBAMOYL-METHYL)-PIPERAZINE-1-CARBOXYLIC ACID 9H-FLUOREN-9-YLMETHYL ESTER] |  | 38% |
| CCNCC(=O)N1CCN(C(=O)OCC2c3ccccc3-c3ccccc32)C(CC(=O)Nc2ccc(C)cc2)C1 (stereo not drawn) [Compound 187, 4-(2-ETHYLAMINO-ACETYL)-2-(P-TOLYLCARBAMOYL-METHYL)-PIPERAZINE-1-CARBOXYLIC ACID 9H-FLUOREN-9-YLMETHYL ESTER] |  | 33.5% |
| CNCC(=O)NCCC[C@H](NC(=O)OCC1c2ccccc2-c2ccccc21)C(=O)Nc1ccc(C)cc1 [Compound 223, (S)-[4-(2-METHYLAMINO-ACETYLAMINO)-1-P-TOLYLCARBAMOYL-BUTYL]-CARBAMIC ACID 9H-FLUOREN-9-YLMETHYL ESTER] |  | 22% |
| Cc1ccc(NC(=O)[C@H](CCCCN)NC(=O)Nc2ccc(NCc3ccc(F)cc3)cc2)cc1 [Compound 225, (S)-6-AMINO-2-{3-[4-(4-FLUORO-BENZYLAMINO)-PHENYL]-UREIDO}-HEXANOIC ACID P-TOLYLAMIDE] |  | 62% |
| Cc1cc2cc(NC(=O)[C@H](CCNC(=O)CN)NC(=O)Nc3ccc4c(c3)Cc3ccccc3-4)ccc2[nH]1 [Compound 240, (S)-4-(2-AMINO-ACETYLAMINO)-2-[3-(9H-FLUOREN-2-YL)-UREIDO]-N-(2-METHYL-1H-INDOL-5-YL)-BUTYRAMIDE] | 63% |  |
